Experimental data taken from PubChem BioAssay AID1226 (NMMLSC, 2008).
Inconclusive results are not listed. Activity calls are given as the source filed them.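 Rule for the calls: active = score of 100, fluorescent reporter fully moved to nucleus as with estrogen, or estrogen effect fully blocked; inactive = score of 0 or 50, partial or no effect.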

The compounds below were run against Estrogen receptor (Homo sapiens) (UniProt P03372) (assay: ERalpha agonist signaling via PH-RFP relocation – imaging, Cos7 ERalpha-GFP, PH-RFP reporter, orthogonal assay for ERalpha ligand project (AID 1226)). Conditions: PIP3 nuclear translocation imaging, at 10 µM, stronger effect = higher value.
Sequence of Estrogen receptor (Homo sapiens) (P03372 whole entry, looked up): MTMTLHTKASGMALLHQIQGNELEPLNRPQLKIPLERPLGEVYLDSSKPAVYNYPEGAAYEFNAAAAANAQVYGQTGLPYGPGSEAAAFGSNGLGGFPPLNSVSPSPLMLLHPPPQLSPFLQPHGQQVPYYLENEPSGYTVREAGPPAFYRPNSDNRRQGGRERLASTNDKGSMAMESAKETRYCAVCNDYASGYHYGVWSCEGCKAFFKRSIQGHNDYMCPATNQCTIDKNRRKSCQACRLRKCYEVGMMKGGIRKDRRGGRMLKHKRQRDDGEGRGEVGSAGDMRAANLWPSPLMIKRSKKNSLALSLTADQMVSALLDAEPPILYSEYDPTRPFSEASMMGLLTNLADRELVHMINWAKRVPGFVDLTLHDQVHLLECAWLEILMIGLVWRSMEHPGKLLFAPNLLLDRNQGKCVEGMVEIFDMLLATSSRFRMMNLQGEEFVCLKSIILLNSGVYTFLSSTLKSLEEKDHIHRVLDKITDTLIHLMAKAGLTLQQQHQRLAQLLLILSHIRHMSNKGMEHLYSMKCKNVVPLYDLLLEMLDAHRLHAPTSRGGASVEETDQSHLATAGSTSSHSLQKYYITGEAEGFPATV

**Q.** With `Nc1ncnc2c1ncn2C1CCC(CO)C(O)C1` (stereo not drawn) as the compound, how does the translocation response score read?
**A.** 100

**Q.** For `Cc1cc(C)c2c(c1)[C@@H]1C=CC[C@@H]1[C@H](c1ccc(S(=O)(=O)N3CCOCC3)cc1)N2`, which translocation response score is on record?
**A.** 100

**Q.** How did the translocation response score turn out when `O=C(O)c1cc(Cl)c2c(c1)[C@@H]1C=CC[C@@H]1[C@H](c1ccc(S(=O)(=O)N3CCOCC3)cc1)N2` was run?
**A.** 50 (inactive)

**Q.** With `O=C(O)c1ccc2c(c1)C1C(Cl)C(Sc3ccccc3[N+](=O)[O-])CC1C(c1cccc([N+](=O)[O-])c1)N2` (stereo not drawn) as the compound, how does the translocation response score read?
**A.** 0 (inactive)

**Q.** How did the translocation response score turn out when `Cc1cc(-c2nn3c(-c4ccccc4)nnc3s2)c2ccccc2n1` was run?
**A.** 100

**Q.** `COc1cccc(NS(=O)(=O)c2ccc3c(c2)C2C=CCC2C(c2ccc(C(=O)O)cc2)N3)c1` (stereo not drawn) was tested. Which translocation response score did it give?
**A.** 50 (inactive)

**Q.** `COc1ccccc1N1CCN(C(=O)c2ccc3nc(-c4ccco4)c(-c4ccco4)nc3c2)CC1` was tested. Which translocation response score did it give?
**A.** 50 (inactive)

**Q.** How did the translocation response score turn out when `Brc1cc2c(cc1C1Nc3ccccc3C3C=CCC31)OCO2` (stereo not drawn) was run?
**A.** 0 (inactive)
